In patent US11034725B2, “Compositions and methods for treating cardiovascular disease” (Genentech, Inc., priority 2016, dated 2021):
pIC50: −log10 of the molar value. Several values for one entry are separate records, joined by “and”; a condition that tells them apart may be missing. Identical values can stand only once. Like-named read-outs stand apart in the source and are kept apart here. Numbered stars: 1 amine (or outer) side, 2 acyl side, 3 side chain; on linkers, the order of the positions; unused ones are H or OH. Bridge positions count the residues as written; N and C are the ends. Square brackets hold non-standard residues; d marks the D form. Peptide text beside a SMILES is read from it. * marks the point of attachment. Trp(6-F) = N[C@@H](Cc1c[nH]c2cc(F)ccc12)C(=O)O; Trp(6-Me) = Cc1ccc2c(C[C@H](N)C(=O)O)c[nH]c2c1; NH(CH2)8CO = O=C(CCCCCCCCN[*:1])[*:2]; hArg = N=C(N)NCCCC[C@H](N)C(=O)O; Pentanoyl = CCCCC(=O)*; Ahp = NCCCCCCC(=O)O; Ava = NCCCCC(=O)O

Assays:
PCSK9 = PCSK9 (Homo sapiens, UniProt Q8NBP7); assay: PCSK9/EGF(A) TR-FRET binding assay
Method: (§1) The former was based on a TF-FRET assay to measure the association of the EGF(A) domain of the LDLR to PCSK9 (“PCSK9/EGF(A) binding assay”) whilst the latter was based on a TR-FRET assay to measure binding of Ab20 to PCSK9Δhelix (“PCSK9Δhelix/Ab20 binding assay”).
(§2) The ability of compounds to inhibit binding to PCSK9 was evaluated with a panel of time-resolved fluorescence resonance energy transfer (TR-FRET) binding assays. […] The PCSK9Δhelix/Ab20 binding assay evaluated the ability of compounds to compete with Ab20 for binding to the N-terminal groove region in a His-tagged, PCSK9Δhelix construct. […] Signal generation in the PCSK9 binding assays was dependent upon the binding interaction to bring into close proximity the His-tag on the PCSK9 and the Fc-tag on the ligand. Anti-His-APC was bound to the His-tag, and anti-Fc-europium was bound to the Fc-tag. When these two antibodies were in close proximity and were irradiated with light at 340 nm, the europium was excited and emitted energy at 615 nm. This energy was taken up by the APC and was emitted as light at 665 nm. Compounds that competed with the ligand reduced the energy transfer and thus the emission at 665 nm. In the His-EGFA-Fc molecule in the counterscreen, the two tags were always in close proximity, thus any reduction in emission at 665 nm was due to interference with the detection system.
(§3) Compounds were solubilized and dilutions were prepared in DMSO. […] The plate was centrifuged to mix the well contents and allowed to incubate for 30 min. […] The TR-FRET signal was read on a ViewLux reader (PerkinElmer) with excitation at 340 nm and emission at 615 and 665 nm with a 50-μs time delay between excitation and measurement of emission. The TR-FRET ratio was calculated as the fluorescence emission at 665 nm divided by the fluorescence emission at 615 nm. The normalized TR-FRET ratios were plotted as a function of the compound concentrations, and the IC50 values were determined using a 4-parameter logistic regression.
(§4) In black 1536-well assay plates (MaKO, Aurora® Microplates, Whitefish, Mont.), 40 nL of peptide in DMSO were preincubated with 2 μL His-tagged PCSK9 plus anti-His-allophycocyanin in assay buffer (50 mM Tris-HCl, pH 7.5, 150 mM NaCl, 2 mM CaCl2, 0.01% Tween®-20, 0.1% bovine gamma globulins, and protease inhibitor cocktail) for 30 min. Then 2 μL of Fc-tagged ligand and anti-Fc-europium in assay buffer were added and allowed to incubate for 2 h.

PCSK9Δhelix = biological target: T1, PCSK9Δhelix (Homo sapiens, UniProt Q8NBP7); assay: PCSK9Δhelix/Ab20 TR-FRET binding assay
T1 construct: Human PCSK9 construct M1-Q692 with an engineered TEV site (residue deletion Y166, R167); made in house; host or cells: CHO

His-EGF(A)-Fc = His-EGF(A)-Fc TR-FRET counterscreen
Method: as §1, §2, §3, §4

[1] = TR-FRET, Table 8D, disulfide-cyclized extension peptides, read-out: PCSK9/EGF(A) IC50
[2] = TR-FRET, Example 7, read-out: PCSK9Δhelix/Ab20 IC50
[3] = TR-FRET, Table 8D, disulfide-cyclized extension peptides, read-out: PCSK9Δhelix/Ab20 IC50
[4] = TR-FRET counterscreen, Table 8D, * = some inhibition at highest concentrations, not sufficient to fit an IC50
[5] = TR-FRET, Example 7, read-out: PCSK9/EGF(A) IC50
[6] = TR-FRET, Table 8E, additional compounds, read-out: PCSK9/EGF(A) IC50
[7] = TR-FRET, Table 8E, additional compounds, read-out: PCSK9Δhelix/Ab20 IC50
[8] = TR-FRET counterscreen, Table 8E, additional compounds

T1 sequence (Q8NBP7 with tags, fused parts or gaps limits assumed): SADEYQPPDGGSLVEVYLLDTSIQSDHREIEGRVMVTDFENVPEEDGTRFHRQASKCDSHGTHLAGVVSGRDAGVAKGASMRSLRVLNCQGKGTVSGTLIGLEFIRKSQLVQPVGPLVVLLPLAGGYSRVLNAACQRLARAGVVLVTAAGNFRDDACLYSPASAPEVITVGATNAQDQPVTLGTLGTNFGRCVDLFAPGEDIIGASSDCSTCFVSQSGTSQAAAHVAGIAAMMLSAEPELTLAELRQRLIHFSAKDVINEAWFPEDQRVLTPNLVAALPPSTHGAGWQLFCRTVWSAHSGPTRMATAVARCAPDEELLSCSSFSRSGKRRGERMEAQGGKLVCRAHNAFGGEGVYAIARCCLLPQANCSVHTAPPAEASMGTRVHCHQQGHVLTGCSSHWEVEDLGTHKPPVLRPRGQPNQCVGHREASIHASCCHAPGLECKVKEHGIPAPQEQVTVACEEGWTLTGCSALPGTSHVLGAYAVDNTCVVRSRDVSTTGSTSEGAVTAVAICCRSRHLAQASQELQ
T1 sequence (Q8NBP7 31-152 partner limits assumed): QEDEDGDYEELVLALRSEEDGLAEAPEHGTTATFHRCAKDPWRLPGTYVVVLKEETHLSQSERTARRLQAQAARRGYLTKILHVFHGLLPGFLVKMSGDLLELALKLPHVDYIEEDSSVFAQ
Sequence of PCSK9 (Q8NBP7 153-692): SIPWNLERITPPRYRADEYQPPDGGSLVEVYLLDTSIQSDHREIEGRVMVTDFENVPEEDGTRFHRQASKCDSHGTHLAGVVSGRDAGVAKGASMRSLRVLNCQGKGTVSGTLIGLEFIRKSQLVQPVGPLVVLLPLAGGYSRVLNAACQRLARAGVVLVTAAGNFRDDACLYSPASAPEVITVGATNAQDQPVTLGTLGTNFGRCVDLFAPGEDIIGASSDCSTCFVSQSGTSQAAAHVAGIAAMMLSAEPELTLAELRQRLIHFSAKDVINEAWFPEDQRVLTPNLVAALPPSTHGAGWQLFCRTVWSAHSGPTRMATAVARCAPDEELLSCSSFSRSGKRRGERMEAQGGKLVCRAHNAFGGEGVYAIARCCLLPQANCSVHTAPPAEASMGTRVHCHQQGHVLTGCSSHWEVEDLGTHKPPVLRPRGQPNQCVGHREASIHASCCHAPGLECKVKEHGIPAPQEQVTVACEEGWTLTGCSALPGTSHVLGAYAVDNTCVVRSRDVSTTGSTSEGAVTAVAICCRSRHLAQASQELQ
Sequence of PCSK9 (Q8NBP7 31-152 partner limits assumed): as the sequence (Q8NBP7 31-152 partner limits assumed) above

Compound	pIC50 (PCSK9; [1])	pIC50 (PCSK9Δhelix; [3])	pIC50 (His-EGF(A)-Fc; [4])	also measured
CC[C@H](C)[C@@H]1NC(=O)[C@H](CCCNC(=N)N)NC(=O)[C@H](CCCCN)NC(=O)[C@H](CC(C)C)NC(=O)[C@H](CC(N)=O)NC(=O)[C@H](Cc2c[nH]c3ccccc23)NC(=O)[C@@H]2CCCN2C(=O)[C@H](CC(C)C)NC(=O)[C@H](CCCNC(=N)N)NC(=O)[C@@H](NC(C)=O)CSSC[C@@H](C(N)=O)NC(=O)[C@@H]2CCCN2C(=O)[C@H](CC(C)C)NC(=O)CNC1=O [Compound 67] (Ac-CRLPWNLKRIGLPC-NH2; disulfide 1-14)	< 4.30	6.16	< 4.30	pIC50 (PCSK9Δhelix; [2]): 6.15
CC[C@H](C)[C@@H]1NC(=O)[C@H](CCCNC(=N)N)NC(=O)[C@H](CCC(N)=O)NC(=O)[C@H](CC(C)C)NC(=O)[C@H](CC(N)=O)NC(=O)[C@H](Cc2c[nH]c3ccccc23)NC(=O)[C@@H]2CCCN2C(=O)[C@H](CC(C)C)NC(=O)[C@H](CCCNC(=N)N)NC(=O)[C@@H](NC(C)=O)CSSC[C@@H](C(N)=O)NC(=O)CCCCCCNC1=O [Compound 121] (Ac-CRLPWNLQRI[Ahp]C-NH2; disulfide 1-12)	< 4.30	4.39	< 4.30	inhibition in the PCSK9Δhelix/Ab20 binding assay (PCSK9Δhelix): weak but detectable inhibition
Ac-DLMPWNLVRIG-NH2 [Compound 48]				pIC50 (PCSK9; [5]): < 4.30; pIC50 (PCSK9Δhelix; [2]): ≤ 4.31; pIC50 (His-EGF(A)-Fc; counterscreen, Example 7): < 4.30
CC[C@H](C)[C@@H]1NC(=O)[C@H](CCCNC(=N)N)NC(=O)[C@H](CCC(N)=O)NC(=O)[C@H](CC(C)C)NC(=O)[C@H](CC(N)=O)NC(=O)[C@H](Cc2c[nH]c3ccccc23)NC(=O)[C@@H]2CCCN2C(=O)[C@H](CC(C)C)NC(=O)[C@H](CCCNC(=N)N)NC(=O)[C@@H](NC(=O)CNC(=O)[C@H](CO)NC(=O)CNC(=O)[C@@H](NC(=O)[C@H](Cc2c[nH]c3ccccc23)NC(=O)[C@H](CC(=O)O)NC(=O)[C@H](CC(C)C)NC(=O)[C@H](Cc2ccc(O)cc2)NC(=O)[C@H](CCC(=O)O)NC(=O)[C@H](CCC(=O)O)NC(=O)[C@H](Cc2c[nH]c3cc(F)ccc23)NC(=O)[C@H](CO)NC(=O)[C@@H](NC(=O)[C@H](Cc2ccccc2)NC(=O)[C@@H](NC(=O)[C@@H](NC(C)=O)[C@@H](C)O)C(C)C)[C@@H](C)O)C(C)C)CSSC[C@@H](C(N)=O)NC(=O)[C@@H]2CCCN2C(=O)[C@H](CC(C)C)NC(=O)CNC1=O [Compound 241] (Ac-TVFTS[Trp(6-F)]EEYLDWVGSGCRLPWNLQRIGLPC-NH2; disulfide 17-30 (inferred))				pIC50 (PCSK9; [6]): 5.80; pIC50 (PCSK9Δhelix; [7]): 7.00; pIC50 (His-EGF(A)-Fc; [8]): ≤ 4.30
CC(=O)N[C@H]1CSSC[C@@H](C(N)=O)NC(=O)CCCCCCCCNC(=O)[C@H](CCCNC(=N)N)NC(=O)[C@H](CCC(N)=O)NC(=O)[C@H](CC(C)C)NC(=O)[C@H](CC(N)=O)NC(=O)[C@H](Cc2c[nH]c3ccccc23)NC(=O)[C@@H]2CCCN2C(=O)[C@H](CC(C)C)NC(=O)[C@H](CCCNC(=N)N)NC1=O [Compound 85] (Ac-CRLPWNLQR[NH(CH2)8CO]C-NH2; disulfide 1-11)	< 4.30	< 4.30	< 4.30	inhibition in the PCSK9Δhelix/Ab20 binding assay (PCSK9Δhelix): removes inhibition
CC[C@H](C)[C@@H]1NC(=O)[C@H](CCCNC(=N)N)NC(=O)[C@H](CCC(N)=O)NC(=O)[C@H](CC(C)C)NC(=O)[C@H](CC(N)=O)NC(=O)[C@H](Cc2c[nH]c3ccccc23)NC(=O)[C@@H]2CCCN2C(=O)[C@H](CC(C)C)NC(=O)[C@H](CCCNC(=N)N)NC(=O)[C@@H](NC(C)=O)CSSC[C@@H](C(N)=O)NC(=O)CNC(=O)CNC(=O)CNC1=O [Compound 81] (Ac-CRLPWNLQRIGGGC-NH2; disulfide 1-14)	< 4.30	4.54	< 4.30	
CC[C@H](C)[C@@H]1NC(=O)[C@H](CCCNC(=N)N)NC(=O)[C@H](CCC(N)=O)NC(=O)[C@H](CC(C)C)NC(=O)[C@H](CC(N)=O)NC(=O)[C@H](Cc2c[nH]c3ccccc23)NC(=O)[C@@H]2CCCN2C(=O)[C@H](CC(C)C)NC(=O)[C@H](CCCNC(=N)N)NC(=O)[C@@H](NC(C)=O)CSSC[C@@H](C(N)=O)NC(=O)CCCCNC1=O [Compound 115] (Ac-CRLPWNLQRI[Ava]C-NH2; disulfide 1-12)	< 4.30	< 4.30	< 4.30	
CC[C@H](C)[C@@H]1NC(=O)[C@@H](CCCNC(=N)N)NC(=O)[C@H](CCC(N)=O)NC(=O)[C@H](CC(C)C)NC(=O)[C@H](CC(N)=O)NC(=O)[C@H](Cc2c[nH]c3ccccc23)NC(=O)[C@@H]2CCCN2C(=O)[C@H](CC(C)C)NC(=O)[C@H](CCCNC(=N)N)NC(=O)[C@@H](NC(C)=O)CSSC[C@@H](C(N)=O)NC(=O)[C@@H]2CCCN2C(=O)[C@H](CC(C)C)NC(=O)CNC1=O [Compound 102] (Ac-CRLPWNLQ[dR]IGLPC-NH2; disulfide 1-14)	< 4.30	< 4.30	< 4.30	
CCCCC(=O)N[C@@H](Cc1c[nH]c2cc(C)ccc12)C(=O)N[C@@H](CC(N)=O)C(=O)N[C@@H](CC(C)C)C(=O)N[C@H](C(=O)N[C@@H](CCCNC(=N)N)C(=O)N[C@H](C(=O)NCC(=O)N[C@@H](CC(C)C)C(=O)N[C@H](C(=O)N[C@@H](CCCNC(=N)N)C(N)=O)[C@@H](C)O)[C@@H](C)CC)C(C)C [Compound 175] (Pentanoyl-[Trp(6-Me)]NLVRIGLTR-NH2)				pIC50 (PCSK9; [6]): ≤ 4.30; pIC50 (PCSK9Δhelix; [7]): 4.41; pIC50 (His-EGF(A)-Fc; [8]): ≤ 4.30
CC[C@H](C)[C@@H]1NC(=O)[C@H](CCCNC(=N)N)NC(=O)[C@H](CCC(N)=O)NC(=O)[C@H](CC(C)C)NC(=O)[C@@H](CC(N)=O)NC(=O)[C@H](Cc2c[nH]c3ccccc23)NC(=O)[C@@H]2CCCN2C(=O)[C@H](CC(C)C)NC(=O)[C@H](CCCNC(=N)N)NC(=O)[C@@H](NC(C)=O)CSSC[C@@H](C(N)=O)NC(=O)[C@@H]2CCCN2C(=O)[C@H](CC(C)C)NC(=O)CNC1=O [Compound 105] (Ac-CRLPW[dN]LQRIGLPC-NH2; disulfide 1-14)	< 4.30	< 4.30	< 4.30	
CCCCC(=O)N[C@@H](Cc1c[nH]c2ccccc12)C(=O)N[C@@H](CC(N)=O)C(=O)N[C@@H](CC(C)C)C(=O)N[C@H](C(=O)N[C@@H](CCCNC(=N)N)C(=O)N[C@H](C(=O)NCC(=O)N[C@@H](CC(C)C)C(=O)N[C@@H](CC(C)C)C(=O)N[C@@H](CCCNC(=N)N)C(N)=O)[C@@H](C)CC)C(C)C [Compound 111] (Pentanoyl-WNLVRIGLLR-NH2)				pIC50 (PCSK9; [5]): < 4.30; pIC50 (PCSK9Δhelix; [2]): 5.31; pIC50 (His-EGF(A)-Fc; counterscreen, Example 7): < 4.30
CCCCC(=O)N[C@@H](Cc1c[nH]c2ccccc12)C(=O)N[C@@H](CC(N)=O)C(=O)N[C@@H](CC(C)C)C(=O)N[C@H](C(=O)N[C@@H](CCCCNC(=N)N)C(=O)N[C@H](C(=O)NCC(=O)N[C@@H](CC(C)C)C(=O)N[C@H](C(=O)N[C@@H](CCCNC(=N)N)C(N)=O)[C@@H](C)O)[C@@H](C)CC)C(C)C [Compound 234, n-BuC(O)-WNLV(homoR)IGLTR-NH2] (Pentanoyl-WNLV[hArg]IGLTR-NH2)				pIC50 (PCSK9; [6]): ≤ 4.30; pIC50 (PCSK9Δhelix; [7]): 5.85; pIC50 (His-EGF(A)-Fc; [8]): ≤ 4.30
CCCCC(=O)N[C@@H](Cc1c[nH]c2ccccc12)C(=O)N[C@@H](CC(N)=O)C(=O)N[C@@H](CC(C)C)C(=O)N[C@H](C(=O)N[C@@H](CCCNC(=N)N)C(=O)N[C@H](C(=O)NCC(=O)N[C@H](C(=O)N[C@@H](CC(C)C)C(=O)N[C@@H](CCCNC(=N)N)C(N)=O)[C@@H](C)O)[C@@H](C)CC)C(C)C [Compound 114] (Pentanoyl-WNLVRIGTLR-NH2)				pIC50 (PCSK9; [5]): < 4.30; pIC50 (PCSK9Δhelix; [2]): < 4.30; pIC50 (His-EGF(A)-Fc; counterscreen, Example 7): < 4.30
CC[C@H](C)[C@@H]1NC(=O)[C@H](CCCNC(=N)N)NC(=O)[C@H](CCCCN)NC(=O)[C@H](CC(C)C)NC(=O)[C@H](CC(N)=O)NC(=O)[C@H](Cc2c[nH]c3ccccc23)NC(=O)[C@H](CC(C)C)NC(=O)[C@@H](NC(=O)CNC(C)=O)CSSC[C@@H](C(=O)N[C@@H](Cc2c[nH]c3ccccc23)C(=O)N[C@@H](Cc2ccccc2)C(N)=O)NC(=O)[C@H](CCC(N)=O)NC(=O)[C@H](CO)NC(=O)CNC1=O [Compound 87] (Ac-GCLWNLKRIGSQCWF-NH2; disulfide 2-13 (inferred))	< 4.30	5.02	< 4.30	
Ac-DLMPWNLVRIALLR-NH2 [Compound 57]				pIC50 (PCSK9; [5]): < 4.30; pIC50 (PCSK9Δhelix; [2]): < 4.31; pIC50 (His-EGF(A)-Fc; counterscreen, Example 7): < 4.30
CC[C@H](C)[C@@H]1NC(=O)[C@H](CCCNC(=N)N)NC(=O)[C@H](CCCCN)NC(=O)[C@H](CC(C)C)NC(=O)[C@H](CC(N)=O)NC(=O)[C@H](Cc2c[nH]c3ccccc23)NC(=O)[C@@H](NC(=O)CNC(=O)[C@H](CO)NC(=O)CNC(C)=O)CSSC[C@@H](C(N)=O)NC(=O)CNC(=O)[C@H](CCC(N)=O)NC(=O)[C@H](CO)NC(=O)CNC1=O [Compound 22] (Ac-GSGCWNLKRIGSQGC-NH2; disulfide 4-15 (inferred))			< 4.30	pIC50 (PCSK9; PCSK9/EGF(A) IC50, TR-FRET, Table 8D, disulfide-cyclized extension peptides): < 4.30; pIC50 (PCSK9Δhelix; PCSK9Δhelix/Ab20 IC50, TR-FRET, Table 8D, disulfide-cyclized extension peptides): 4.85 and < 4.30
CC[C@H](C)[C@@H]1NC(=O)[C@H](CCCNC(=N)N)NC(=O)[C@H](CCC(N)=O)NC(=O)[C@H](CC(C)C)NC(=O)[C@H](CC(N)=O)NC(=O)[C@H](Cc2c[nH]c3ccccc23)NC(=O)[C@@H]2CCCN2C(=O)[C@H](CC(C)C)NC(=O)[C@H](CCCNC(=N)N)NC(=O)[C@@H](NC(=O)CNC(=O)[C@H](CO)NC(C)=O)CSSC[C@@H](C(N)=O)NC(=O)[C@@H]2CCCN2C(=O)[C@H](CC(C)C)NC(=O)CNC1=O [Compound 30] (Ac-SGCRLPWNLQRIGLPC-NH2; disulfide 3-16)	< 4.30	6.02	< 4.30	
